Results reported in patent US20050101595A1, “N-containing cycloalkyl-substituted amino-thiazole derivatives and pharmaceutical compositions for inhibiting cell proliferation and methods for their use” (PFIZER INC., priority 2003, published 2005).

What was measured:
[1] = system: HCT-116 cell line; experiment: Inhibition of cell growth, tetrazolium salt (MTT) assay; type: cell-based; conditions: MTT, compound at 0.175 uM; for inhibition at 0.175 µM: Homo sapiens, HCT-116, HCT-116 cells
Outline: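 McCoy's 5A cultures; 4 h pre-incubation; compound dilutions in 0.5% v/v DMSO; 3–5 d, 37° C, 5% CO2; MTT 0.2 mg/mL final, 4 h; formazan dissolved in DMSO, A540; vs 0.5% DMSO vehicle.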

[2] = target: CDK2/Cyclin A (Homo sapiens, UniProt P24941); experiment: Inhibition of CDK2/Cyclin A Retinoblastoma Kinase Activity; type: biochemical; conditions: for inhibition at 0.05 µM: read-out: % inhibition of CDK2 (@ 0.05 μM), compound at 0.05 μM
Procedure: Cyclin-dependent kinase activity was measured by quantifying the enzyme-catalyzed, time-dependent incorporation of radioactive phosphate from [^32P]ATP or [^33P]ATP into a protein substrate. Unless noted otherwise, assays were performed in 96-well plates in a total volume of 50 μL, in the presence of 10 mM HEPES (N-[2-hydroxyethyl]piperazine-N′-[2-ethanesulfonic acid]) (pH 7.4), 10 mM MgCl2, 25 μM adenosine triphosphate (ATP), 1 mg/mL ovalbumin, 5 μg/mL leupeptin, 1 mM dithiothreitol, 10 mM β-glycerophosphate, 0.1 mM sodium vanadate, 1 mM sodium fluoride, 2.5 mM ethylene glycol-bis(β-aminoethyl ether)-N,N,N′N′-tetraacetic acid (EGTA), 2% (v/v) dimethylsulfoxide, and 0.03-0.4 μCi [^32/33P]ATP per reaction. Reactions were initiated with enzyme, incubated at 30° C., and terminated after 20 minutes by the addition of ethylenediaminetetraacetic acid (EDTA) to 250 mM. The phosphorylated substrate was then captured on a nitrocellulose or phosphocellulose membrane using a 96-well filtration manifold, and unincorporated radioactivity was removed by repeated washing with 0.85% phosphoric acid. Radioactivity was quantified by exposing the dried membranes to a phosphorimager.
Inhibition was measured relative to control wells that contained all reaction components including 2% (v/v) DMSO but no compound, after subtraction of background radioactivity measured in the absence of enzyme. Apparent Ki values of discrete compounds were measured by assaying enzyme activity in the presence of different inhibitor compound concentrations and subtracting the background radioactivity measured in the absence of enzyme. The kinetic parameters (kcat, Km for ATP) were measured for each enzyme under the usual assay conditions by determining the dependence of initial rates on ATP concentration. Inhibition data were fit to an equation for competitive inhibition using Kaleidagraph (Synergy Software), or were fit to an equation for competitive tight-binding inhibition using the software KineTic (BioKin, Ltd.).
Inhibition of CDK2/Cyclin A Retinoblastoma Kinase Activity:
CDK2 was purified using published methodology (Rosenblatt et al., “Purification and Crystallization of Human Cyclin-dependent Kinase 2,” J. Mol. Biol., vol. 230, 1993, pp. 1317-1319) from insect cells that had been infected with a baculovirus expression vector. […] A complex of CDK2 and proteolyzed cyclin A was prepared and purified by gel filtration. The substrate for this assay was the same Rb substrate fragment used for the CDK4 assays, and the methodology of the CDK2/delta cyclin A and the CDK4/delta cyclin D3 assays was essentially the same, except that CDK2 was present at 10 nM or 19 nM. The duration of the assay was 60 or 75 minutes, during which the time-dependence of product formation was linear and initial rate conditions were met. And, the percent inhibitions of the compounds of Example O through Example R were calculated as described above and shown in Table 2.

| SMILES | inhibition at 0.05 µM [2] [%] | % inhibition of CDK2 (@ 0.05 μM) ([2]; compound at 0.05 μM, 0.05 µM) [%] | inhibition at 0.175 µM [1] [%] | % inhibition HCT-116 in MTT @ 0.175 uM ([1]; HCT-116 cells, 0.175 µM) [%] |
| --- | --- | --- | --- | --- |
| Nc1nc(NC2CCN(S(=O)(=O)CCCN[C@@H]3CONC3=O)CC2)sc1C(=O)c1c(F)cccc1F [Example V21] | 86 |  | 10 |  |
| Nc1nc(NC2CCN(S(=O)(=O)CCCNCc3ccncc3)CC2)sc1C(=O)c1c(F)cccc1F [Example V23] | 87 |  | 24 |  |
| Nc1nc(NC2CCN(S(=O)(=O)CCCNCc3ccco3)CC2)sc1C(=O)c1c(F)cccc1F [Example V24] | 89 |  | 48 |  |
| Nc1nc(NC2CCN(S(=O)(=O)CCCNCc3ccccc3F)CC2)sc1C(=O)c1c(F)cccc1F [Example V26] | 92 |  | 76 |  |
| Cc1ccccc1CNCCCS(=O)(=O)N1CCC(Nc2nc(N)c(C(=O)c3c(F)cccc3F)s2)CC1 [Example V27] | 93 |  | 86 |  |
| Nc1nc(NC2CCN(S(=O)(=O)CCCNCc3cccs3)CC2)sc1C(=O)c1c(F)cccc1F [Example V28] | 91 |  | 33 |  |
| CN(C)CCCN(C)CCCS(=O)(=O)N1CCC(Nc2nc(N)c(C(=O)c3c(F)cccc3F)s2)CC1 [Example V32] | 78 |  | 11 |  |
| CCN(CC)CCN(C)CCCS(=O)(=O)N1CCC(Nc2nc(N)c(C(=O)c3c(F)cccc3F)s2)CC1 [Example V33] | 76 |  | 16 |  |
| COCCCNCCCS(=O)(=O)N1CCC(Nc2nc(N)c(C(=O)c3c(F)cccc3F)s2)CC1 [Example V40] | 80 |  | 0 |  |
| CC(O)CNCCCS(=O)(=O)N1CCC(Nc2nc(N)c(C(=O)c3c(F)cccc3F)s2)CC1 (stereo not shown) [Example V42] | 79 |  | 4 |  |
| Cc1cnc(CNCCCS(=O)(=O)N2CCC(Nc3nc(N)c(C(=O)c4c(F)cccc4F)s3)CC2)cn1 [Example V43] | 81 |  | 17 |  |
| Cc1cc(NCCCS(=O)(=O)N2CCC(Nc3nc(N)c(C(=O)c4c(F)cccc4F)s3)CC2)no1 [Example V44] | 80 |  | 17 |  |
| Nc1ccc(CNCCCS(=O)(=O)N2CCC(Nc3nc(N)c(C(=O)c4c(F)cccc4F)s3)CC2)cc1 [Example V47] | 85 |  | 13 |  |
| Nc1nc(NC2CCN(S(=O)(=O)CCCNCC(O)CO)CC2)sc1C(=O)c1c(F)cccc1F (stereo not shown) [Example V48] | 79 |  | 7 |  |
| Nc1nc(NC2CCN(S(=O)(=O)CCCNCCC3=CCCCC3)CC2)sc1C(=O)c1c(F)cccc1F [Example V49] | 91 |  | 38 |  |
| CCN(CCO)CCCS(=O)(=O)N1CCC(Nc2nc(N)c(C(=O)c3c(F)cccc3F)s2)CC1 [Example V51] | 79 |  | 0 |  |
| Nc1nc(NC2CCN(S(=O)(=O)CCCNCc3ccc(F)cc3)CC2)sc1C(=O)c1c(F)cccc1F [Example V52] | 92 |  | 65 |  |
| CC(NCCCS(=O)(=O)N1CCC(Nc2nc(N)c(C(=O)c3c(F)cccc3F)s2)CC1)c1ccccc1 (stereo not shown) [Example V53] | 91 |  | 75 |  |
| CN(C)CCNCCCS(=O)(=O)N1CCC(Nc2nc(N)c(C(=O)c3c(F)cccc3F)s2)CC1 [Example V54] | 75 |  | 0 |  |
| CCCNCCCS(=O)(=O)N1CCC(Nc2nc(N)c(C(=O)c3c(F)cccc3F)s2)CC1 [Example V56] | 83 |  | 19 |  |
| CCN(CC)CCCS(=O)(=O)N1CCC(Nc2nc(N)c(C(=O)c3c(F)cccc3F)s2)CC1 [Example V57] | 77 |  | 33 |  |
| COCC(C)NCCCS(=O)(=O)N1CCC(Nc2nc(N)c(C(=O)c3c(F)cccc3F)s2)CC1 (stereo not shown) [Example V58] | 80 |  | 10 |  |
| CC(C)CCNCCCS(=O)(=O)N1CCC(Nc2nc(N)c(C(=O)c3c(F)cccc3F)s2)CC1 [Example V60] | 84 |  | 18 |  |
| Cc1cccc(NCCCS(=O)(=O)N2CCC(Nc3nc(N)c(C(=O)c4c(F)cccc4F)s3)CC2)n1 [Example V62] | 91 |  | 0 |  |

Second part, led by results:

| inhibition at 0.05 µM [2] [%] | % inhibition of CDK2 (@ 0.05 μM) ([2]; compound at 0.05 μM, 0.05 µM) [%] | SMILES | inhibition at 0.175 µM [1] [%] | % inhibition HCT-116 in MTT @ 0.175 uM ([1]; HCT-116 cells, 0.175 µM) [%] |
| --- | --- | --- | --- | --- |
| 67 |  | CN(C)C1CCN(CCCS(=O)(=O)N2CCC(Nc3nc(N)c(C(=O)c4c(F)cccc4F)s3)CC2)CC1 [Example V22] | 13 |  |
| 73 |  | Nc1nc(NC2CCN(S(=O)(=O)CCCN3CCC(O)CC3)CC2)sc1C(=O)c1c(F)cccc1F [Example V25] | 16 |  |
| 81 |  | CC(=O)N1CCN(CCCS(=O)(=O)N2CCC(Nc3nc(N)c(C(=O)c4c(F)cccc4F)s3)CC2)CC1 [Example V29] | 0 |  |
| 78 |  | CN1CCCN(CCCS(=O)(=O)N2CCC(Nc3nc(N)c(C(=O)c4c(F)cccc4F)s3)CC2)CC1 [Example V30] | 8 |  |
| 83 |  | CC1CN(CCCS(=O)(=O)N2CCC(Nc3nc(N)c(C(=O)c4c(F)cccc4F)s3)CC2)CC(C)O1 (stereo not shown) [Example V31] | 48 |  |
| 67 |  | Nc1nc(NC2CCN(S(=O)(=O)CCCN3CCN(CCO)CC3)CC2)sc1C(=O)c1c(F)cccc1F [Example V34] | 16 |  |
| 72 |  | CN1CCN(CCCS(=O)(=O)N2CCC(Nc3nc(N)c(C(=O)c4c(F)cccc4F)s3)CC2)CC1 [Example V35] | 17 |  |
| 50 |  | Nc1nc(NC2CCN(S(=O)(=O)CCCN3CCCC(CO)C3)CC2)sc1C(=O)c1c(F)cccc1F (stereo not shown) [Example V36] | 8 |  |
|  | 85 | Nc1nc(NC2CCN(S(=O)(=O)CCCN3CCCCCC3)CC2)sc1C(=O)c1c(F)cccc1F [Example V37] |  | 65 |
| 80 |  | Nc1nc(NC2CCN(S(=O)(=O)CCCN3CCCCC3CCO)CC2)sc1C(=O)c1c(F)cccc1F (stereo not shown) [Example V38] | 1 |  |
| 84 |  | Nc1nc(NC2CCN(S(=O)(=O)CCCN[C@H]3CC[C@H](O)CC3)CC2)sc1C(=O)c1c(F)cccc1F [Example V39] | 0 |  |
| 71 |  | CC(=O)NC1CCN(CCCS(=O)(=O)N2CCC(Nc3nc(N)c(C(=O)c4c(F)cccc4F)s3)CC2)C1 (stereo not shown) [Example V41] | 14 |  |
| 83 |  | NC(=O)C1CCN(CCCS(=O)(=O)N2CCC(Nc3nc(N)c(C(=O)c4c(F)cccc4F)s3)CC2)CC1 [Example V45] | 25 |  |
| 77 |  | CC1(C)CCCN(CCCS(=O)(=O)N2CCC(Nc3nc(N)c(C(=O)c4c(F)cccc4F)s3)CC2)C1 [Example V46] | 71 |  |
| 81 |  | COC(=O)CNCCCS(=O)(=O)N1CCC(Nc2nc(N)c(C(=O)c3c(F)cccc3F)s2)CC1 [Example V50] | 0 |  |
| 84 |  | Nc1nc(NC2CCN(S(=O)(=O)CCCN3CCCCC3)CC2)sc1C(=O)c1c(F)cccc1F [Example V55] | 56 |  |
| 72 |  | CCN1CCN(CCCS(=O)(=O)N2CCC(Nc3nc(N)c(C(=O)c4c(F)cccc4F)s3)CC2)CC1 [Example V59] | 7 |  |
| 81 |  | CCCN(CCCS(=O)(=O)N1CCC(Nc2nc(N)c(C(=O)c3c(F)cccc3F)s2)CC1)CC1CC1 [Example V61] | 65 |  |
| 78 |  | Nc1nc(NC2CCN(S(=O)(=O)CCCNC3CCC3)CC2)sc1C(=O)c1c(F)cccc1F [Example V63] | 13 |  |
| 17 |  | Nc1nc(NC2CCN(S(=O)(=O)CCCN3CCCC3)CC2)sc1C(=O)c1c(F)cccc1F [Example V64] | 0 |  |
